Values joined by “and” are separate entries in the source; they are usually repeats but may differ in a detail not shown here. Equal values may be shown once.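 A five-concentration, 48-hour dose response in 96-well plates underlies each endpoint, interpolated linearly between surrounding concentrations. At the GI50, growth is halved. TGI denotes the concentration required for complete inhibition of growth.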
How the values were obtained:
Assay in all cases: NCI anticancer screen, dose series, 48 h
NCI/ADR-RES ovarian = system: NCI/ADR-RES ovarian
HOP-62 NSCLC = system: HOP-62 NSCLC
UACC-62 melanoma = system: UACC-62 melanoma
TK-10 renal = system: TK-10 renal
PC-3 prostate = system: PC-3 prostate
COLO 205 colon = system: COLO 205 colon
U251 CNS = system: U251 CNS
SF-268 CNS = system: SF-268 CNS
OVCAR-3 ovarian = system: OVCAR-3 ovarian
RPMI-8226 leukemia = system: RPMI-8226 leukemia

Structure (SMILES)	GI50 (NCI/ADR-RES ovarian) [µM]	TGI (NCI/ADR-RES ovarian) [µM]	GI50 (HOP-62 NSCLC) [µM]	TGI (HOP-62 NSCLC) [µM]	GI50 (UACC-62 melanoma) [µM]	TGI (UACC-62 melanoma) [µM]	GI50 (TK-10 renal) [µM]	TGI (TK-10 renal) [µM]	GI50 (PC-3 prostate) [µM]	TGI (PC-3 prostate) [µM]	GI50 (COLO 205 colon) [µM]	TGI (COLO 205 colon) [µM]	GI50 (U251 CNS) [µM]	TGI (U251 CNS)	GI50 (SF-268 CNS) [µM]	TGI (SF-268 CNS) [µM]	GI50 (OVCAR-3 ovarian) [µM]	TGI (OVCAR-3 ovarian) [µM]	TGI (RPMI-8226 leukemia) [µM]	GI50 (RPMI-8226 leukemia) [µM]
COc1cc(NC(C)CCCNC2CN3CCC2CC3)c2ncccc2c1 (configuration not stated)	24.6	> 100	11.9	24.8	3.2	10.5	16.6	31	12.5	35.1	2.58	7.16	10.6	24 µM	12.2	25.8	3.22	11.4		
CCOc1ccc2c(c1)[n+]([O-])c(-c1ccc(Cl)cc1)c(N)[n+]2[O-]				> 100								> 100		> 100 µM		> 100		> 100	> 100	
COc1ccc(C2=CC(c3ccc4c(c3)OCO4)c3c(c4ccccc4oc3=O)O2)cc1OC (configuration not stated)		> 100		> 100		> 100		> 100		> 100		> 22.6		> 100 µM		> 100			> 65.3	
CN1C(=Nc2ccccc2)SC1=Nc1ccccc1				> 100		> 100		> 100				> 100		> 100 µM		> 100		> 100	> 100	
CC(C)(C)n1cc(-c2ccnc(NCCCNS(=O)(=O)c3ccc(C(F)(F)F)cc3)c2)c(-c2cccc(O)c2)n1	2.07	4.3	1.93	3.85	1.69	3.23	2.31	5.28	1.64	3.72	1.95	3.78	1.71	3.53 µM			1.96	3.84		
CCOc1ccccc1N1C(=O)C(=O)C(c2nc3ccccc3o2)C(=O)C1=O				> 100		> 100		> 100				> 100		> 100 µM		> 100		> 100	> 100	
COc1ccc2n[se]nc2c1						> 100		> 100				> 100		> 100 µM		> 100			> 100	
CN(C)CC/C(=N\Nc1ccc([N+](=O)[O-])cc1)c1ccccc1				28.5		25.9		15.3				28.5		25.5 µM		27.4		31.2	30.6	
Cc1ccc2nc(NC(=O)C(=O)C(C#N)c3nc4ccccc4s3)sc2c1 (configuration not stated)				31.9		> 100		85.3				38.4		> 100 µM		> 100		56.3	64.8	
CCC[CH2][Sn]1([CH2]CCC)[O]C(=O)c2cccnc2[O]1			3.95	20.9	1.8	3.94	2.73	8.23			1.88	3.65	1.89	3.79 µM			1.91	8.16	6.34	1.74
CN(CCCn1c2c(c3ccccc3c1=O)C(=O)c1ccccc1-2)CCCn1c2c(c3ccccc3c1=O)C(=O)c1ccccc1-2	1.05	4.32			3.08	45.3			0.29		1.64	> 45.7			1.64	> 100				
COc1cc(/C=C2/C(=O)N(C(=O)OCC(C)C)C(Cc3cc(OC)c(OC)c(C)c3OC)C(=O)N2Cc2ccccc2)c(OC)c(C)c1OC (configuration not stated)				> 100		> 100		> 100				> 100		> 100 µM		> 100		> 100	> 100	
O=[N+]([O-])O.[Cu+2].[NH-]CC[NH-].[NH-]CC[NH-]	> 10	> 10	> 10	> 10	> 10	> 10			> 10	> 10	> 10	> 10	> 10	> 10 µM	> 10	> 10	> 10	> 10	> 10	> 10
O=C([CH-]C(=O)c1ccccc1)c1ccccc1.O=C([CH-]C(=O)c1ccccc1)c1ccccc1.[La+3].[OH-].[OH3+]			10.9	41.9	14	44.7	32.1	> 100			22.6	61.5	15.2	> 100 µM	13.3	59.5			49.9	11.1
COC(=O)/C(C)=C(/CCC1(C)OCCO1)O[Si](C)(C)C				> 100		> 100		> 100				> 100		> 100 µM		> 100		> 100	> 100	
COc1ccc(Br)c(N/N=C2\CCCNC2=O)c1				> 100		> 100		> 100				> 100		> 100 µM				> 100	> 100	

Structure (SMILES)	GI50 (NCI/ADR-RES ovarian) [µM]	TGI (NCI/ADR-RES ovarian) [µM]	GI50 (HOP-62 NSCLC) [µM]	TGI (HOP-62 NSCLC) [µM]	GI50 (UACC-62 melanoma) [µM]	TGI (UACC-62 melanoma) [µM]	GI50 (TK-10 renal) [µM]	TGI (TK-10 renal) [µM]	GI50 (PC-3 prostate) [µM]	TGI (PC-3 prostate) [µM]	GI50 (COLO 205 colon) [µM]	TGI (COLO 205 colon) [µM]	GI50 (U251 CNS) [µM]	TGI (U251 CNS)	GI50 (SF-268 CNS) [µM]	TGI (SF-268 CNS) [µM]	GI50 (OVCAR-3 ovarian) [µM]	TGI (OVCAR-3 ovarian) [µM]	TGI (RPMI-8226 leukemia) [µM]	GI50 (RPMI-8226 leukemia) [µM]
C=C1C(=O)O[C@H]2[C@H]1CC/C(COC(=O)NCc1cn(C)c3ccccc13)=C\CC[C@@]1(C)O[C@@H]21	2.37	12.3			1.69	4.33	1.8	3.43	1.76	4.79			1.96	5.24 µM	1.84	4.95	1.03	2.3	4.22	0.696
Oc1c(C(Nc2cccc3cccnc23)c2ccccc2)ccc2cccnc12 (configuration not stated)				> 100		> 100						> 100				> 100		> 100	> 100	
CC(=O)CC(=O)OC1CC(C)CCC1C(C)C (configuration not stated)				> 100		> 100		> 100				> 100		> 100 µM		> 100		> 100	46.1	
COc1cc2c(cc1C)NC(=O)/C2=C/c1ccccn1	2.42	6.27	4.24	> 100	2.85	13.9			8.73	> 100	4.23	> 100	2.92	> 100 µM	3.28	24.6	2.61	6.81	> 100	3.93
CCc1cc(C(=O)OC)cn1C(=N)c1ccc(Cl)cc1				> 100		> 100		> 100				> 100		> 100 µM		> 100		> 100	> 100	
C(#Cc1ccccc1C#Cc1cccs1)c1cccs1	25.2	> 100	77.3	> 100	43.4	> 100	27.7	> 100	25.4	> 100	36.4	> 100	66.8	> 100 µM	> 100	> 100	57.1	> 100		
OC(c1ccccc1)(c1ccccc1)c1ccncc1				> 100		> 100		> 100				> 100		> 100 µM		> 100		> 100	> 100	
CCS(CC)(CC)CC1CCCC2=CCC(P(=O)(c3ccccc3)c3ccccc3)CC21 (configuration not stated)				32		13.5		27				37.4		23.1 µM		26.1		30.5		
COC1CC(OS(=O)(=O)c2ccc([N+](=O)[O-])cc2)C(OC(=O)c2ccccc2)C(C)O1 (configuration not stated)				> 100		> 100		> 100				> 100		> 100 µM		> 100		> 100	> 100	
COc1cnc2c(c1)C(=O)c1c-2n(CCCn2ccnc2)c(=O)c2cc(F)ccc12	0.0193	> 100	< 0.01	0.176					0.0576	> 100	0.0228	0.297	< 0.01	0.179 µM			0.0437	0.382	0.248	< 0.01
Cc1ccc(S(=O)(=O)OC2CSS(=O)CC2OS(=O)(=O)c2ccc(C)cc2)cc1 (configuration not stated)				36.7		29.2		28.5				24.1		28.1 µM		30.7		31.8	27.6	
O=[N+]([O-])c1cc(C(F)(F)F)cc([N+](=O)[O-])c1CCl				30.6		1.21		19.5				4.14		14.2 µM		27.2		10.5	3.49	
CC(C)C1CC[C@@H](C)C[C@@]1(O)CC(N)=O (some centres not stated)						> 100		> 100				> 100		> 100 µM				> 100	> 100	
O=C(O)C(SC(=S)c1ccc(C(=S)SC(C(=O)O)c2ccccc2)cc1)c1ccccc1 (configuration not stated)				> 100		> 100		> 100						> 100 µM		> 100		> 100	> 100	
COc1cc2c(c(OC)c1OC)-c1ccc(SC)c(=O)cc1C(CO)C2 (configuration not stated)			< 0.01	> 100	< 0.01	15.7	> 100	> 100			< 0.01		< 0.01	0.728 µM and 0.111 µM	< 0.01			0.449	> 100	

— PubChem BioAssay (NCI)
